# Data reported in patent US11510928B2, “Use of mirtazapine in the treatment of inflammatory disorders, autoimmune disease and PBC” (UTI Limited Partnership, priority 2017, dated 2022).
# Columns and labels:
# [1] = test system: patients registered in THIN database; assay: THIN cohort study 1995-2017: incidence of IMIDs according to mirtazapine exposure (Example 9); assay type: in vivo, human; conditions: THIN 1995-2017
# Source text: Data source: THIN is a primary care patient oriented electronic medical record (EMR) database. It is one of the largest medical databases in the UK, consisting of prospectively gathered electronic medical records from over 11.1 million patients (˜3.7 million active patients), the equivalent to 75.6 million patient years, from more than 560 general practices in the UK, covering 6.2% of the UK population. All data elements are fully anonymised and validated by Cegedim Strategic Data (CSD)-Medical Research UK. […] Data from participant general practitioners across the UK are exported to THIN administrators and the database is updated every 3 months.
# Study cohort: All adult patients (18 years) registered in THIN database starting from Jan. 1, 1995. Since mirtazapine was approved and available in the UK, Europe, and US markets by 1996, all patients who were prescribed mirtazapine with a prescription duration longer than 30 days, were defined as incident cases. We assessed the hazard of developing each studied IMID (CD, UC, psoriasis, MS or RA) separately. […] Similarly, in the same MS cohort, if a patient develops another IMID of interest prior to a diagnosis of MS, the index date of outcome will be the date of MS diagnosis. In all of our cohorts, we will follow patients from study start date until an incident diagnosis of IMID of interest, death, loss to follow-up or end of follow-up.
# Inclusion and exclusion criteria: Patients should not have any interruption of registration or leave of practice. Cases with mirtazapine prescription duration of less than 30 days or unknown duration were excluded from the study.
# Exposure variable of interest: Our primary exposure variable was mirtazapine. We used Read codes to identify mirtazapine usage, duration, dose, and start date. Our primary outcome was the incident diagnosis of one of the following conditions: Crohn's disease, multiple sclerosis, psoriasis, rheumatoid arthritis, and ulcerative colitis during study follow-up period (1995-2017).
# a) Demographic covariates: Pre-specified covariates include age at diagnosis; sex; and cigarette smoking status is defined either (1) current smoker, coded for smoking within 12 months of the index date (condition diagnosis date); (2) ex-smoker, coded for smoking before but not within 12 months of the index date; or (3) never smoked, coded either as a lifetime non-smoker or not recorded as a smoker; alcohol consumption classified as current, former, never consumed alcohol, or unknown status at diagnosis; body mass index (weight in kg and height in m2); and socioeconomic status measured by the Mosaic scale which is a consumer classification scale that captures demographics, lifestyles, and behaviours (10 classes).
# b) Depression: Read codes were used to identify patients with major depressive disorder (MDD). Read codes associated with only symptoms of depression, bipolar disorder, mania or hypomania were excluded. MDD was defined as (1) never diagnosed with MDD; (2) past MDD diagnosis prior to 90 days from index date; or (3) current MDD diagnosis if a diagnosis was made within 90 days before or after the index date.
# c) Comorbidities: We used the Quality and Outcomes Framework (QOF) Read codes to assess for the following comorbidities: asthma, atrial fibrillation, cancer, chronic kidney disease (stages 3-5), chronic obstructive pulmonary disease, coronary heart disease, dementia, diabetes, epilepsy, heart failure, hypertension, and hypothyroid. […]
# [2] = test system: hepatic cytokine and chemokine milieu; assay: Hepatic and plasma cytokine/chemokine levels after mirtazapine treatment (Luminex, LEGENDplex); assay type: in vivo, mouse
# Procedure: Male 8-10 week old C57BL/6 mice (Jackson Labs, Bar Harbor, Me.) were used. All procedures were approved by the University of Calgary Animal Care Committee (protocol numbers AC14-0129 and AC14-0128) and were performed in accordance with the guidelines of the Canadian Council on Animal Care. […] Mirtazapine was suspended in 1% aqueous solution of Tween 80, whereas the control group received 1% aqueous solution of Tween 80. Blood and liver samples were collected 5 hours post-mirtazapine treatment (or 16 hours post-Con A treatment). The detailed experimental protocols, lists of antibodies and reagents used, flow cytometry gating, and immune cell phenotyping strategies, are described herein. To delineate the effect of mirtazapine treatment on hepatic cytokine/chemokine expression a Luminex® assay was used using methods as previously described. […] A panel of mouse cytokines/chemokines were simultaneously measured in liver homogenate samples using a mouse MILLIPLEX kit (Millipore, USA) according to the manufacturer's protocol. The multiplexing analysis was performed using the Luminex 100 system (Luminex®, USA; Eve Technologies Corporation, Calgary, Canada). Total protein concentrations in liver homogenates were quantified using a BCA Protein Assay kit (Pierce, USA) according to manufacturers instructions. Results were expressed as pg of analyte per mg of protein. Additional plasma and hepatic measurements were made using a bead-based LEGENDplex immunoassay. Plasma and hepatic levels of CXCL10/IP-10 and CXCL9/Mig were measured using BioLegend's LEGENDplex™ bead-based immunoassays in a 96-well v-bottom microplate, according to the manufacturer's protocol. At the end of the assay, all samples were transferred from the plate to FACS tubes and read on a flow cytometer (Attune® Acoustic Focusing Cytometer). After data acquisition, flow cytometry standard (FCS) files were analyzed using Biolegend's LEGENDplex data analysis software to calculate the concentrations of individual chemokines, and results were expressed as pg of analyte per mg of protein. Alternatively, the flow cytometry standard (FCS) files were analyzed using FlowJo software (Treestar, San Carlos, Calif.).
# [3] = pilot study, 4 hrs post-treatment, 20 mg/kg (FIG. 13)
smiles,measurement,setting,value
CN1CCN2c3ncccc3Cc3ccccc3C2C1 (stereo not shown) [Mirtazapine],"Adjusted incidence rate ratio, Multiple sclerosis","[1]; N = 371, P = 0.006",0.80 (0.71-0.88)
same,"Adjusted incidence rate ratio, Crohn's Disease","[1]; N = 490, P = 0.89",1.00 (0.93-1.07)
same,"Adjusted incidence rate ratio, Ulcerative Colitis","[1]; N = 1375, P = 0.002",0.84 (0.81-0.88)
same,"Adjusted incidence rate ratio, R. arthritis","[1]; N = 1792, P < 0.001",0.55 (0.51-0.60)
same,"Adjusted incidence rate ratio, Psoriasis","[1]; N = 5181, P = 0.002",0.93 (0.88-0.98)
same,Plasma levels of CXCL10/IP-10 and CXCL9/MIG vs vehicle,[2]; 5 hours post-treatment,significantly increased
same,Increase in hepatic CXCL9 level vs vehicle,"[2]; 5 hours post-treatment, ip",~7 fold
same,Increase in hepatic CXCL10 level vs vehicle,"[2]; 5 hours post-treatment, ip",~120 fold
same,Increase in hepatic GM-CSF level vs vehicle,"[2]; 5 hours post-treatment, ip",~1.5 fold
same,Increase in hepatic IFNγ level vs vehicle,"[2]; 5 hours post-treatment, ip",~8 fold
same,Increase in hepatic IL-1β level vs vehicle,"[2]; 5 hours post-treatment, ip",~1.5 fold
same,Increase in hepatic IL-4 level vs vehicle,"[2]; 5 hours post-treatment, ip",~30 fold
same,Increase in hepatic IL-5 level vs vehicle,"[2]; 5 hours post-treatment, ip",~2 fold
same,Increase in hepatic IL-6 level vs vehicle,"[2]; 5 hours post-treatment, ip",~1.5 fold
same,Increase in hepatic IL-12 level vs vehicle,"[2]; 5 hours post-treatment, ip",~1.5 fold
same,Increase in hepatic IL-12p40 level vs vehicle,"[2]; 5 hours post-treatment, ip",~1.5 fold
same,Increase in hepatic IL-12p70 level vs vehicle,"[2]; 5 hours post-treatment, ip",~1.5 fold
same,Increase in hepatic IL-15 level vs vehicle,"[2]; 5 hours post-treatment, ip",~1.5 fold
same,Increase in hepatic IL-17 level vs vehicle,"[2]; 5 hours post-treatment, ip",~1.5 fold
same,Increase in hepatic TNFα level vs vehicle,"[2]; 5 hours post-treatment, ip",~1.5 fold
same,"Hepatic levels of IL-2, IL-10, IL-13, IL-7, IL-9, M-CSF, G-CSF, LIF, IL-3, CCL3/MIP-1α, CCL4/MIP-1β, CXCL2/MIP-2, CCL11/Eotaxin-1, CCL5/RANTES","[2]; 5 hours post-treatment, data not shown",unaltered
same,Hepatic levels of the chemokines CXCL10/IP-10 and CXCL9/MIG vs vehicle,"[2]; 5 hours post-treatment, in words",striking increases
same,"Hepatic levels of CCL2/MCP-1, CCL4/MIP-1β, CCL5/RANTES, CCL11/eotaxin-1, CCL3/MIP-1a",[2]; after mirtazapine treatment,no significant changes
same,Hepatic IL-10 levels,[2]; [3],unchanged
same,Increase in hepatic IL-4 levels,[2]; [3],50 fold
